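Each compound was tested at five concentrations against cells in 96-well plates for 48 hours. GI50: concentration for 50% inhibition of growth.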 Activity calls are given as the source filed them. Rule as the data show it: active = GI50 up to about 1.1 µM and inactive = higher.
Legend:
Experiment in all cases: NCI-60 cell line screen, 48 h
OVCAR-5 = tested on: OVCAR-5
SF-268 = tested on: SF-268
A549 = tested on: A549
MOLT-4 = tested on: MOLT-4
CCRF-CEM = tested on: CCRF-CEM
K562 = tested on: K562
SNB-19 = tested on: SNB-19
NCI-H460 = tested on: NCI-H460
BT-549 = tested on: BT-549
PC-3 = tested on: PC-3
SK-MEL-5 = tested on: SK-MEL-5
UO-31 = tested on: UO-31
SK-MEL-2 = tested on: SK-MEL-2
ACHN = tested on: ACHN
RXF 393 = tested on: RXF 393
NCI-H23 = tested on: NCI-H23
HL-60 = tested on: HL-60
UACC-257 = tested on: UACC-257
HT-29 = tested on: HT-29
RPMI-8226 = tested on: RPMI-8226
U-251 = tested on: U-251
CAKI-1 = tested on: CAKI-1
DU-145 = tested on: DU-145
KM12 = tested on: KM12
OVCAR-4 = tested on: OVCAR-4
SK-MEL-28 = tested on: SK-MEL-28
MDA-MB-435 = tested on: MDA-MB-435
MDA-N = tested on: MDA-N
A498 = tested on: A498
Malme-3M = tested on: Malme-3M
SN12C = tested on: SN12C
NCI-H226 = tested on: NCI-H226
MCF7 = tested on: MCF7
SF-295 = tested on: SF-295
OVCAR-3 = tested on: OVCAR-3
UACC-62 = tested on: UACC-62
SNB-75 = tested on: SNB-75
HOP-92 = tested on: HOP-92
HCT-116 = tested on: HCT-116
T47D = tested on: T47D
HCC 2998 = tested on: HCC 2998
EKVX = tested on: EKVX
NCI/ADR-RES = tested on: NCI/ADR-RES
MDA-MB-231 = tested on: MDA-MB-231
HCT-15 = tested on: HCT-15
786-0 = tested on: 786-0
IGROV-1 = tested on: IGROV-1
SR = tested on: SR
Hs-578T = tested on: Hs-578T
HOP-62 = tested on: HOP-62
LOX IMVI = tested on: LOX IMVI
M14 = tested on: M14
SK-OV-3 = tested on: SK-OV-3
SW-620 = tested on: SW-620
COLO 205 = tested on: COLO 205
NCI-H522 = tested on: NCI-H522
OVCAR-8 = tested on: OVCAR-8
TK-10 = tested on: TK-10
SF-539 = tested on: SF-539

COC(=O)C1OC(O[C@H]2CC[C@]3(C)[C@H]4CC=C5[C@@H]6CC(C)(C)CC[C@]6(C(=O)OC)CC[C@@]5(C)[C@]4(C)CC[C@H]3C2(C)C)C(O)C(O)C1O (stereo not given in full)
GI50 (OVCAR-5): 14.6 µM (inactive)
GI50 (SF-268): 17.8 µM (inactive)
GI50 (A549): 7.14 µM (inactive)
GI50 (MOLT-4): 11.4 µM (inactive)
GI50 (CCRF-CEM): 5.66 µM (inactive)
GI50 (K562): 14.9 µM (inactive)
GI50 (SNB-19): 15.2 µM (inactive)
GI50 (NCI-H460): 8.38 µM (inactive)
GI50 (BT-549): 17.8 µM (inactive)
GI50 (PC-3): 15.1 µM (inactive)
GI50 (SK-MEL-5): 18.2 µM (inactive)
GI50 (UO-31): 19.3 µM (inactive)
GI50 (SK-MEL-2): 17.3 µM (inactive)
GI50 (ACHN): 11.8 µM (inactive)
GI50 (RXF 393): 5.62 µM (inactive)
GI50 (NCI-H23): 11.9 µM (inactive)
GI50 (HL-60): 18.1 µM (inactive)
GI50 (UACC-257): 19.5 µM (inactive)
GI50 (HT-29): 10.5 µM (inactive)
GI50 (RPMI-8226): 20.1 µM (inactive)
GI50 (U-251): 11.4 µM (inactive)
GI50 (CAKI-1): 8.85 µM (inactive)
GI50 (DU-145): 14.5 µM (inactive)
GI50 (KM12): 7.52 µM (inactive)
GI50 (OVCAR-4): 14.4 µM (inactive)
GI50 (SK-MEL-28): 18.5 µM (inactive)
GI50 (MDA-MB-435): 16.5 µM (inactive)
GI50 (MDA-N): 17 µM (inactive)
GI50 (A498): 19.8 µM (inactive)
GI50 (Malme-3M): 21 µM (inactive)
GI50 (SN12C): 13.1 µM (inactive)
GI50 (NCI-H226): 18.3 µM (inactive)
GI50 (MCF7): 12.5 µM (inactive)
GI50 (SF-295): 15.1 µM (inactive)
GI50 (OVCAR-3): 4.34 µM (inactive)
GI50 (UACC-62): 14.7 µM (inactive)
GI50 (SNB-75): 17.1 µM (inactive)
GI50 (HOP-92): 19.4 µM (inactive)
GI50 (HCT-116): 12.3 µM (inactive)
GI50 (T47D): 19.7 µM (inactive)
GI50 (HCC 2998): 7.76 µM (inactive)
GI50 (EKVX): 12.4 µM (inactive)
GI50 (NCI/ADR-RES): 15.8 µM (inactive)
GI50 (MDA-MB-231): 4.45 µM (inactive)
GI50 (HCT-15): 13.9 µM
GI50 (786-0): 6.73 µM (inactive)
GI50 (IGROV-1): 18 µM (inactive)
GI50 (SR): 3.72 µM (inactive)
GI50 (Hs-578T): 19.9 µM (inactive)
GI50 (HOP-62): 18 µM (inactive)
GI50 (LOX IMVI): 6.67 µM (inactive)
GI50 (M14): 16.2 µM (inactive)
GI50 (SK-OV-3): 20.2 µM (inactive)
GI50 (SW-620): 17 µM (inactive)
GI50 (COLO 205): 16.1 µM (inactive)
GI50 (NCI-H522): 15.4 µM (inactive)
GI50 (OVCAR-8): 13.6 µM (inactive)

Clc1nc(Cl)c(Cl)c(Cl)n1
GI50 (OVCAR-5): 20.5 µM (inactive)
GI50 (SF-268): 17.2 µM (inactive)
GI50 (A549): 19.8 µM (inactive)
GI50 (MOLT-4): 6.21 µM (inactive)
GI50 (CCRF-CEM): 5.15 µM (inactive)
GI50 (K562): 8.99 µM (inactive)
GI50 (SNB-19): 22.3 µM (inactive)
GI50 (NCI-H460): 21.6 µM (inactive)
GI50 (BT-549): 20.6 µM (inactive)
GI50 (PC-3): 16.6 µM (inactive)
GI50 (SK-MEL-5): 17.6 µM (inactive)
GI50 (UO-31): 24.5 µM (inactive)
GI50 (ACHN): 8.91 µM (inactive)
GI50 (RXF 393): 18.3 µM (inactive)
GI50 (NCI-H23): 18.5 µM (inactive)
GI50 (HL-60): 13.5 µM (inactive)
GI50 (UACC-257): 16.3 µM (inactive)
GI50 (HT-29): 20.7 µM (inactive)
GI50 (RPMI-8226): 43.3 µM (inactive)
GI50 (U-251): 16.7 µM (inactive)
GI50 (CAKI-1): 17.8 µM (inactive)
GI50 (DU-145): 16.7 µM (inactive)
GI50 (KM12): 13.6 µM (inactive)
GI50 (OVCAR-4): 23 µM (inactive)
GI50 (SK-MEL-28): 19.6 µM (inactive)
GI50 (MDA-MB-435): 21.8 µM (inactive)
GI50 (MDA-N): 19.1 µM (inactive)
GI50 (A498): 19.4 µM (inactive)
GI50 (Malme-3M): 16 µM (inactive)
GI50 (SN12C): 20.6 µM (inactive)
GI50 (NCI-H226): 20.7 µM (inactive)
GI50 (TK-10): 20.9 µM (inactive)
GI50 (MCF7): 15.8 µM (inactive)
GI50 (SF-295): 19.3 µM (inactive)
GI50 (OVCAR-3): 13.9 µM (inactive)
GI50 (UACC-62): 18.5 µM (inactive)
GI50 (SNB-75): 17.8 µM (inactive)
GI50 (HOP-92): 25.5 µM (inactive)
GI50 (HCT-116): 18.9 µM (inactive)
GI50 (T47D): 18.2 µM (inactive)
GI50 (HCC 2998): 18.7 µM (inactive)
GI50 (EKVX): 32.1 µM (inactive)
GI50 (NCI/ADR-RES): 23.4 µM (inactive)
GI50 (MDA-MB-231): 18 µM (inactive)
GI50 (HCT-15): 19.1 µM
GI50 (SF-539): 23 µM (inactive)
GI50 (786-0): 19.7 µM (inactive)
GI50 (IGROV-1): 19.9 µM (inactive)
GI50 (SR): 5.96 µM (inactive)
GI50 (Hs-578T): 20.9 µM (inactive)
GI50 (HOP-62): 19.6 µM (inactive)
GI50 (LOX IMVI): 11.3 µM (inactive)
GI50 (M14): 17 µM (inactive)
GI50 (SK-OV-3): 16.6 µM (inactive)
GI50 (SW-620): 6.85 µM (inactive)
GI50 (COLO 205): 8.57 µM (inactive)
GI50 (NCI-H522): 15.9 µM (inactive)
GI50 (OVCAR-8): 26.4 µM (inactive)

Source: ChEMBL document CHEMBL1201862, “PubChem BioAssay data set” (2004)
